US20040142937A1, “Use of heterocyclic amine-type compounds as neuroprotective agents” (priority 2002, published 2004)

Tests used:
[1] = test system: rat model of cerebral infarction; details: administered before the event; cited from earlier work
[2] = test system: rats; assay: 3-acetylpyridine (3-AP) neurotoxicity model in rats; assay type: in vivo, rat
[3] = sumanirole 1-20 mg/kg PO, given before or after 3-AP, sacrifice 96 hours later, dose-related

## CCN(CC)C(=O)N[C@H]1C=C2c3cccc4[nH]cc(c34)C[C@H]2N(C)C1 [Lisuride]
[1]
  brain edema: reduced
  survival time: prolonged

## CN[C@@H]1Cc2cccc3[nH]c(=S)n(c23)C1
other
  melting point: 210 to 213 °C

## CN[C@@H]1Cc2cccc3[nH]c(=O)n(c23)C1.O=C(O)/C=C\C(=O)O [Sumanirole, (5R)-5-(methylamino)-5,6-dihydro-4H-imidazo[4,5,1-ij]quinolin-2(1H)-one (Z)-2-butenedioate (1:1)]
[2]; pretreatment with raclopride
  neuroprotective effects of sumanirole after pretreatment with raclopride: did not block
[2]; sumanirole 1-20 mg/kg PO, given before or after 3-AP, dose-related
  3-AP induced reduction in rotorod performance: significantly attenuated
[2]; [3]
  3-AP induced reduction in cerebellar ATP: significantly attenuated
  3-AP induced reduction in cerebellar cGMP: significantly attenuated
[2]; sumanirole 1-20 mg/kg PO, neuronal cell counts 96 hours later
  inferior olive neuronal cell loss produced by 3-AP: significantly reduced

## CN[C@@H]1Cc2cccc3[nH]c(=S)n(c23)C1.O=C(O)CC(O)C(=O)O
other
  melting point: 195 to 196 °C
